From patent US10426815B2, “Prevention and treatment of itch with an MRGPR antagonist” (THE GENERAL HOSPITAL CORPORATION, priority 2015, dated 2019) come the findings set out here.

Entries after “also recorded” stand apart in the source; their conditions may differ.

Experiment [1] addresses T1, MrgA3 (mouse MrgprA3) (Mus musculus, UniProt Q91WW3).
T1 construct: expressed in transfected cells; host or cells: HeLa cells, pcDNA3.1(-)
T1 sequence (Q91WW3 1-302): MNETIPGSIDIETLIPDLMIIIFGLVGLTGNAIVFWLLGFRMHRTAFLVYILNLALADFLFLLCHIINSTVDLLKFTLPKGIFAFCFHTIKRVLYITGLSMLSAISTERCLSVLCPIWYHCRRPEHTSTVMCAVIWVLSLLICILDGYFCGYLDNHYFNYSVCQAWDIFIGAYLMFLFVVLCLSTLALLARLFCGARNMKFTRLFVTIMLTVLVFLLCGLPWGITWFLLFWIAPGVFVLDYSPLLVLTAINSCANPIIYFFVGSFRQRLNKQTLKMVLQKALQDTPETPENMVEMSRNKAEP
Description: Calcium imaging of cells transfected with the GPCR (Table 1). It is filed as cell-based. As to conditions: FIG. 7c: CQ 100 μM, QWF 100 μM. The procedure: Human NK1 cDNA was obtained from LIFE Technologies, PCR cloned with Xho I-Hind III ends and cloned into pcDNA3.1(−). Mouse NK2 and NK3 expression-ready vectors were obtained from […] (Piscataway, N.J.). All other Mrgprs (human MRGPRX1, human MRGPRX2, human MRGPRX3, human MRGPRX4, mouse MrgprA2a, mouse MrgprA2b, mouse MrgprA3, mouse MrgprA4, mouse MrgprA9, mouse MrgprA10, mouse MrgprB4 and mouse MrgprB5) were cloned by PCR from genomic DNAs and inserted into pcDNA3.1 (−).
10 μg of expression vector (human MRGPRX2, mouse MrgprA1 or NK1) and 10 μl of LIPOFECTAMINE 2000 transfection reagent were diluted into 0.5 ml of DMEM and separately left at room temperature (RT) for 5 min. They were then mixed and incubated at RT for 20 minutes prior to being added to HeLa cells. HeLa cells were grown to confluence, trypsinized and 1×10^6 cells were pelleted in a 15 ml tube by centrifugation at 1000 rpm for 5 minutes. The DMEM-LIPOFECTAMINE 2000-DNA mixture (1 ml) was then added to the cell pellet, suspended and incubated at RT for 5 minutes. 2 ml of complete DMEM with 10% FBS without antibiotics were added to the tube, mixed by inverting the tube, plated into a 96-well glass bottom plate at 50,000 cells/well, and placed in a 37° C. CO2 incubator for 3 hours. HeLa cells transfected with salmon sperm DNA were plated as a control. The medium was changed after 3 hours and left in the incubator. 24 hours after transfection, the medium in the wells was removed and 100 μl of complete DMEM containing 2 μM of FURA-2 were added to each well and left at room temperature in the dark for 1 hr.
Calcium imaging was performed immediately after loading cells with Fura-2, using a ZEISS Axiovert 200M microscope platform equipped with a flipping filter wheel for ratiometric imaging. Axiovision software, version 4.6 was used for calcium image analysis of the cells excited at 340 nm and 380 nm. Agonists were added at 15 seconds after the start of the excitation procedure. Antagonists were added five minutes before imaging with the agonists. Images were taken every 5 seconds, including at zero time, during a 90 second period or longer if required. The software later analyzed all images taken during each excitation period. Ratiometric changes were measured in 10-20 cells in each individual experiment. An average of the fluorescence of the cells in each image was calculated and plotted against time in seconds.

For experiment [2], the target named is T2, MrgC11 (mouse MrgprC11) (Mus musculus, UniProt Q8CIP3).
T2 construct: expressed in transfected cells; host or cells: HeLa cells
T2 sequence (Q8CIP3 1-322): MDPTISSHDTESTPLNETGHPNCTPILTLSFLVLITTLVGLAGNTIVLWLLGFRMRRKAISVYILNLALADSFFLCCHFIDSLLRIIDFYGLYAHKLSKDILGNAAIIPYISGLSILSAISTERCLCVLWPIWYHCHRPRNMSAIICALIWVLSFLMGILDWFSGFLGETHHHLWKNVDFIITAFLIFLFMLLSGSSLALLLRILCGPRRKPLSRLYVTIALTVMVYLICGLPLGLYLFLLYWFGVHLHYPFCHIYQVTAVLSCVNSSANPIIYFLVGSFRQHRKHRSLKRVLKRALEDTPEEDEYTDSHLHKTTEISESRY
The experiment is described as above. It is filed as cell-based. The following applies: capsaicin 3 μM.

Consider “Boc-Gln-D-Trp(Formyl)-Phe benzyl ester trifluoroacetate [QWF]”, for which, in experiment [1], the “inhibition of MrgprA3 activation by chloroquine (CQ)” value is “does not affect; also recorded: does not inhibit”.

As to “SLIGRL: tethered hexapeptide ligand of mouse PAR2 (SEQ ID NO: 7)”, the “activation of mouse MrgprC11 by the substance (in words)” value in experiment [2] is given as “activates”.
